Changes are numbered by the printed parent chain. Values belong to the molecule of their own block, whether it stands above or below them.
How the values were obtained:
Assay type in all cases: cell-based
[1] = biological target: T1, hM1 WT mAChR (M1 muscarinic acetylcholine receptor) (Homo sapiens, UniProt P11229, A196G/Y106C); test: cell-based
T1 sequence (P11229 1-460 Y106C/A196G): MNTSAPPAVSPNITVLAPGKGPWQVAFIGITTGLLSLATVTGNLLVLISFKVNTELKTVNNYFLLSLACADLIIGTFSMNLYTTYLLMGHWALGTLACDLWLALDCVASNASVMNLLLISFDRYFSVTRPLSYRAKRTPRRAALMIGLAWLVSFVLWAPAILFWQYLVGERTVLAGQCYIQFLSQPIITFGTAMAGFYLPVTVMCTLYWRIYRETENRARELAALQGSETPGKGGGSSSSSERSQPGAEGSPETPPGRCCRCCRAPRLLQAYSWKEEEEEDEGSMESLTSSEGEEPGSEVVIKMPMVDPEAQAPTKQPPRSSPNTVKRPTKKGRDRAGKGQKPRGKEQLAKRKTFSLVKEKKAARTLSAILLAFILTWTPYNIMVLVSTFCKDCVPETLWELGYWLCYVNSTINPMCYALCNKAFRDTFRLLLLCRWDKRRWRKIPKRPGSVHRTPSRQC

[2] = biological target: T2, hM1 WT mAChR (M1 muscarinic acetylcholine receptor) (Homo sapiens, UniProt P11229); test: cell-based
T2 sequence (P11229 1-460): T1 sequence (P11229 1-460 Y106C/A196G) with C106Y, G196A

[3] = biological target: T1, hM1 WT mAChR (M1 muscarinic acetylcholine receptor); test: IP1 accumulation
[4] = biological target: T2, hM1 WT mAChR (M1 muscarinic acetylcholine receptor); test: IP1 accumulation; conditions: for pEC50^b / IP1 / M1WT: […] h, […] °C, pH […]
[5] = biological target: T3, hM1 WT mAChR (M1 muscarinic acetylcholine receptor) (Homo sapiens, UniProt P11229, Y106C/A196G); test: whole-cell [3H]NMS inhibition binding, allosteric ternary complex model; conditions: M1 DREADD, printed as Y3.[…] and A5.[…]; HBSS, […] HEPES pH […]; allosteric
T3 sequence (P11229 1-460 Y106C/A196G): T1 sequence (P11229 1-460 Y106C/A196G)

[6] = biological target: T2, hM1 WT mAChR (M1 muscarinic acetylcholine receptor); test: as above
[7] = biological target: T1, hM1 WT mAChR (M1 muscarinic acetylcholine receptor); test: as above
[8] = biological target: T3, hM1 WT mAChR (M1 muscarinic acetylcholine receptor); test: cell-based

pEC50^b / IP1 / M1WT ([4]; allosteric agonist, no ACh added): 6.86 ± 0.19 | pKI^b (nH)^c / M1DREADD [5]: 5.3 ± 0.09 | pKI^b (nH)^c / M1WT ([6]; HBSS, […] HEPES pH […], allosteric): 6.0 ± 0.10
Structure (SMILES): Cn1cc(-c2ccc(COc3ccccc3-c3cc(=O)n(C4CCCCC4O)cn3)cc2)cn1 (stereo not drawn) [MIPS1780, 3-(2-hydroxycyclohexyl)-6-(2-((4-(1-methyl-1H-pyrazol-4-yl)-benzyl)oxy)phenyl)-pyrimidin-4(3H)-one]

EC50 [4]: 12.9 nM | Ki [7]: 5010 nM | Ki [6]: 501 nM
Structure (SMILES): Cc1cnc(C(=O)N[C@H]2CCOC[C@@H]2O)cc1Cc1ccc(-c2cscn2)cc1 [PF-06767832, N-((3R,4S)-3-hydroxytetrahydro-2H-pyran-4-yl)-5-methyl-4-(4-(thiazol-4-yl)benzyl)pyridine-2-carboxamide]

Continued, molecule first:

Structure (SMILES): C[N+]1([O-])CCN(C2=Nc3cc(Cl)ccc3Nc3ccccc32)CC1 [CNO]
Ki [1]: 126 nM | Ki [2]: 12600 nM | EC50 [3]: 5.37 nM

Structure (SMILES): O=C(N[C@H]1CCCC[C@@H]1O)[C@H]1CN(Cc2ccc(-n3cccn3)cc2)c2ccccc2O1 [VU0486846, (2R)-N-[(1S,2S)-2-hydroxycyclohexyl]-4-[(4-pyrazol-1-ylphenyl)-methyl]-2,3-dihydro-1,4-benzoxazine-2-carboxamide]
EC50 [4]: 372 nM | Ki [7]: 25100 nM | Ki [6]: 794 nM

Structure (SMILES): O=C1CCCN1CC#CCN1CCCC1 [oxotremorine]
pEC50^b / IP1 / M1WT ([4]; orthosteric agonist): 7.68 ± 0.12 | pKI^b (nH)^c / M1DREADD [8]: 4.3 ± 0.05 | pKI^b (nH)^c / M1WT [2]: 6.0 ± 0.04
